# In ChEMBL document CHEMBL1136080, “(+/-)-2-(3-Piperidyl)-1,2,3,4-tetrahydroisoquinolines as a new class of specific bradycardic agents” (2003):
# Legend:
# Format in all cases: functional
# Rattus norvegicus [1] = assay: Dose to produce minimal influence on mean blood pressure in anesthetized rats
# Rattus norvegicus [2] = assay: Percentage change in heart rate from the initial value in urethane-anesthetized rats at 3 mg/kg intravenous dose
# Cavia porcellus = species: Cavia porcellus; assay: Concentration required to produce 30% reduction (in vitro) from the initial spontaneous beat rates in isolated guinea pig atrium; settings: Cardiac atrium
SMILES,Dose (Rattus norvegicus [1]),Change (Rattus norvegicus [2]),EC30 (Cavia porcellus)
COc1cc2c(cc1OC)CN(C1CCCN(CCCOc3ccc4c(c3)OCO4)C1)CC2 (centres undefined),10 mg/kg,47%,250 nM
COc1cc2c(cc1OC)CN(C1CCCN(CCCCc3ccccc3)C1)CC2 (centres undefined),–,23%,540 nM
COc1cc2c(cc1OC)CN(C1CCCN(CCCc3ccccc3)C1)CC2 (centres undefined),–,–,1200 nM
COc1cc2c(cc1OC)CN(C1CCCN(CCCOc3ccc4c(c3)-c3ccccc3C4)C1)CC2 (centres undefined),–,–,4100 nM
COc1ccc(OCCCN2CCCC(N3CCc4cc(OC)c(OC)cc4C3)C2)cc1OC (centres undefined),–,47%,380 nM
COc1cc2c(cc1OC)CN(C1CCCN(CCCOc3cc(OC)c(OC)c(OC)c3)C1)CC2 (centres undefined),–,–,1500 nM
COc1cc2c(cc1OC)CN(C1CCCN(CCCOc3ccc4ccccc4c3)C1)CC2 (centres undefined),–,23%,840 nM
COc1cc2c(cc1OC)CN(C1CCCN(CCCCCc3ccccc3)C1)CC2 (centres undefined),–,–,1300 nM
COc1ccc(OCCCN2CCCC(N3CCc4cc(OC)c(OC)cc4C3)C2)cc1 (centres undefined),–,40%,390 nM
COc1cc2c(cc1OC)CN(C1CCCN(Cc3ccccc3)C1)CC2 (centres undefined),–,33%,830 nM
COc1cc2c(cc1OC)CN(C1CCCN(CCCOc3ccccc3)C1)CC2 (centres undefined),–,40%,430 nM
COc1cc2c(cc1OC)CN(C1CCCN(CCCOc3ccc4c(c3)CCC4)C1)CC2 (centres undefined),–,38%,660 nM
COc1cc2c(cc1OC)CN(C1CCCN(CCc3ccccc3)C1)CC2 (centres undefined),–,–,2200 nM
COc1ccc(CCN(C)CCCN2CCc3cc(OC)c(OC)cc3CC2=O)cc1OC [ZATEBRADINE],–,47%,260 nM
